Assays:
[1] = system: Human immunodeficiency virus 1; experiment: Antiviral activity against X4 tropic HIV1 NL4.3 infected in human MT4 cells expressing CD4 and CXCR4 assessed as inhibition of virus-induced cytopathicity; format: functional, organism-based; conditions: Human immunodeficiency virus 1, NL4.3, MT4
[2] = Cytotoxicity against human MT4 cells expressing CD4 and CXCR4; format: cell-based
[3] = target: T1, C-X-C chemokine receptor type 4 (Homo sapiens, UniProt P61073); experiment: Antagonist activity at CXCR4 in human CEM-CCRF cells expressing CD4 assessed as inhibition of SDF-1-induced Ca2+ signaling; format: functional, cell-based
T1 sequence (P61073 whole entry): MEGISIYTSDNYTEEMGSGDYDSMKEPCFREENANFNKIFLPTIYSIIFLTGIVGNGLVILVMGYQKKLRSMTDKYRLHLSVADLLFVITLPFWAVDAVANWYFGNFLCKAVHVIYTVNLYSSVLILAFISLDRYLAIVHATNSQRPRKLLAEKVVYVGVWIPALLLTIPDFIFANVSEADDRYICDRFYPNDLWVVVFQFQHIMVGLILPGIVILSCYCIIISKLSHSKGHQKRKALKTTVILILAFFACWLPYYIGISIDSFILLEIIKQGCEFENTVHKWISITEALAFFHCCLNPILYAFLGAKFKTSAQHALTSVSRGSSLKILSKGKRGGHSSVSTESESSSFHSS

[4] = Clearance in rat at 10 umol/kg, iv; format: ADME, organism-based; conditions: in vivo
[5] = (§1) Half life in rat at 10 umol/kg, iv; format: ADME, organism-based; conditions: in vivo, 10 umol/kg
[6] = Oral bioavailability in rat at 100 umol/kg; format: ADME, organism-based; conditions: in vivo
[7] = (§2) Cmax in rat at 10 umol/kg, iv; format: ADME, organism-based; design: dose 10 umol/kg, route intravenous; conditions: in vivo, 10 umol/kg
[8] = Volume of distribution in dog at 5 umol/kg, iv; format: ADME, organism-based, Canis lupus familiaris; conditions: in vivo
[9] = Half life in dog at 5 umol/kg, iv; format: ADME, organism-based, Canis lupus familiaris; conditions: in vivo
[10] = system: Human immunodeficiency virus 1; experiment: Antiviral activity against X4 tropic HIV1 infected in human PBMC assessed as inhibition of virus-induced cytopathicity in presence of 1 mg/mL of alpha-acid glycoprotein; format: functional
[11] = Cmax in dog at 5 umol/kg, iv; format: ADME, organism-based, Canis lupus familiaris; design: dose 5 umol/kg, route intravenous; conditions: in vivo
[12] = Oral bioavailability in dog at 12.5 umol/kg; format: ADME, organism-based, Canis lupus familiaris; conditions: in vivo
[13] = system: Human immunodeficiency virus 1; experiment: Antiviral activity against X4 tropic HIV1 infected in human PBMC assessed as inhibition of virus-induced cytopathicity; format: functional, organism-based
Canis familiaris = experiment: (§3) AUC (0 to infinity) in dog at 5 umol/kg, iv; format: ADME, organism-based, Canis lupus familiaris, Plasma; design: dose 5 umol/kg, time infinity, route intravenous; conditions: in vivo
[14] = (§4) AUC (0 to infinity) in rat at 10 umol/kg, iv; format: ADME, organism-based, Plasma; design: dose 10 umol/kg, time infinity, route intravenous; conditions: plasma, 10 umol/kg
[15] = Volume of distribution in rat at 10 umol/kg, iv; format: ADME, organism-based; conditions: in vivo
[16] = target: T1, C-X-C chemokine receptor type 4; experiment: Displacement of [125I]SDF-1 from CXCR4 in human CEM-CCRF cells expressing CD4 by liquid scintillation counting; format: cell-based
[17] = Clearance in dog at 5 umol/kg, iv; format: ADME, organism-based, Canis lupus familiaris; conditions: in vivo
[18] = as §3; format: ADME, organism-based, Canis lupus familiaris, Plasma; design: dose 5 umol/kg, time infinity, route intravenous; conditions: plasma, 5 umol/kg
Rattus norvegicus [19] = experiment: as §1; format: ADME, organism-based; conditions: in vivo
Rattus norvegicus [20] = experiment: as §2; format: ADME, organism-based; design: dose 10 umol/kg, route intravenous; conditions: in vivo
Rattus norvegicus [21] = experiment: as §4; format: ADME, organism-based, Plasma; design: dose 10 umol/kg, time infinity, route intravenous; conditions: in vivo

Compound | IC50 [1] | CC50 [2] | IC50 [3] | further results
NCc1cc(CO)ccc1CN(Cc1nc2ccccc2[nH]1)C1CCCc2cccnc21 (configuration not stated) | 17 nM | 37500 nM | 11 nM | –
CO/N=C/c1ccc(CN(Cc2nc3ccccc3[nH]2)C2CCCc3cccnc32)c(CN)c1 (configuration not stated) | 22 nM | 26800 nM | 5 nM | –
NCc1ccc(CN(Cc2nc3ccccc3[nH]2)C2CCCc3cccnc32)s1 (configuration not stated) | 2480 nM | 28500 nM | – | –
NCc1cc(F)ccc1CN(Cc1nc2ccccc2[nH]1)C1CCCc2cccnc21 (configuration not stated) | 165 nM | 45600 nM | 219 nM | –
NCc1cscc1N(Cc1nc2ccccc2[nH]1)[C@H]1CCCc2cccnc21 | 0.99 nM | – | – | clearance [4]: 27.2 mL/min/kg; half-life [5]: 1.7 h; bioavailability [6]: 6%; Cmax [7]: 1400 nM; Vd [8]: 2.2 L/kg; half-life [9]: 3.4 h; fold change (FC) [10]: 28; Cmax [11]: 2600 nM; bioavailability [12]: 9%; IC50 [13]: 2 nM; AUC (Canis familiaris): 3.7 µM·h; AUC(0-inf) [14]: 3.7 µM·h; Vd [15]: 5.2 L/kg; IC50 [16]: 88.9 nM
NCc1ccccc1CN(Cc1nc2ccccc2[nH]1)C1CCCc2cccnc21 (configuration not stated) | – | – | 28 nM | –
NCc1cocc1N(Cc1nc2ccccc2[nH]1)[C@H]1CCCc2cccnc21 | 0.31 nM | – | – | clearance [4]: 23.3 mL/min/kg; half-life [5]: 2.1 h; clearance [17]: 3.7 mL/min/kg; bioavailability [6]: 17%; Cmax [7]: 3000 nM; Vd [8]: 0.7 L/kg; half-life [9]: 2.7 h; fold change (FC) [10]: 17; Cmax [11]: 4700 nM; bioavailability [12]: 28%; IC50 [13]: 4.1 nM; AUC(0-inf) [18]: 16.4 µM·h; AUC(0-inf) [14]: 12.5 µM·h; Vd [15]: 3.6 L/kg; IC50 [16]: 44.5 nM
NCc1nccnc1CN(Cc1nc2ccccc2[nH]1)C1CCCc2cccnc21 (configuration not stated) | > 1230 nM | 6100 nM | – | –
NCc1ncccc1CN(Cc1nc2ccccc2[nH]1)C1CCCc2cccnc21 (configuration not stated) | 21 nM | 150000 nM | 21 nM | –
NCc1ccoc1CN(Cc1nc2ccccc2[nH]1)C1CCCc2cccnc21 (configuration not stated) | 0.4 nM | 28500 nM | 12 nM | –
NCc1ccc(CN(Cc2nc3ccccc3[nH]2)C2CCCc3cccnc32)c(CN)c1 (configuration not stated) | 2 nM | 122000 nM | 10 nM | –
NCc1ocnc1CN(Cc1nc2ccccc2[nH]1)C1CCCc2cccnc21 (configuration not stated) | 2830 nM | 32900 nM | – | –
NCc1ncccc1CN(Cc1nc2ccccc2[nH]1)[C@H]1CCCc2cccnc21 | 4.2 nM | – | – | t1/2 (Rattus norvegicus [19]): 0.8 h; bioavailability [6]: 22%; Cmax (Rattus norvegicus [20]): 1200 nM; Vd [8]: 2.6 L/kg; half-life [9]: 5.7 h; fold change (FC) [10]: 24; Cmax [11]: 4200 nM; bioavailability [12]: 84%; IC50 [13]: 9.9 nM; AUC (Canis familiaris): 13.5 µM·h; AUC (Rattus norvegicus [21]): 5.4 µM·h; Vd [15]: 6.6 L/kg; IC50 [16]: 19.8 nM
NCc1[nH]cnc1CN(Cc1nc2ccccc2[nH]1)C1CCCc2cccnc21 (configuration not stated) | > 1160 nM | 5800 nM | – | –
NCc1cocc1N(Cc1nc2ccccc2[nH]1)C1CCCc2cccnc21 (configuration not stated) | 10.9 nM | 30200 nM | 25 nM | –
NCc1ccc(CN(Cc2nc3ccccc3[nH]2)C2CCCc3cccnc32)o1 (configuration not stated) | 3570 nM | 28500 nM | – | –
NCc1cscc1N(Cc1nc2ccccc2[nH]1)C1CCCc2cccnc21 (configuration not stated) | 103 nM | 32900 nM | 13 nM | –
NCc1ncoc1CN(Cc1nc2ccccc2[nH]1)C1CCCc2cccnc21 (configuration not stated) | 7.2 nM | 64500 nM | 1.3 nM | –
NCc1cc(C(N)=O)ccc1CN(Cc1nc2ccccc2[nH]1)C1CCCc2cccnc21 (configuration not stated) | 12 nM | 120000 nM | 15 nM | –
NCc1sccc1CN(Cc1nc2ccccc2[nH]1)C1CCCc2cccnc21 (configuration not stated) | 14 nM | 31500 nM | 60 nM | –
NCc1nc(CN(Cc2nc3ccccc3[nH]2)C2CCCc3cccnc32)co1 (configuration not stated) | 20100 nM | 28500 nM | – | –
NCc1cc(C(=O)O)ccc1CN(Cc1nc2ccccc2[nH]1)C1CCCc2cccnc21 (configuration not stated) | 69 nM | 137000 nM | 126 nM | –
COc1ccc(CN(Cc2nc3ccccc3[nH]2)C2CCCc3cccnc32)c(CN)c1 (configuration not stated) | 18 nM | 36500 nM | 5 nM | –
NCc1ccncc1CN(Cc1nc2ccccc2[nH]1)C1CCCc2cccnc21 (configuration not stated) | 124 nM | 128000 nM | 160 nM | –
NCc1occc1CN(Cc1nc2ccccc2[nH]1)C1CCCc2cccnc21 (configuration not stated) | 8 nM | 50000 nM | 21 nM | –
COC(=O)c1ccc(CN(Cc2nc3ccccc3[nH]2)C2CCCc3cccnc32)c(CN)c1 (configuration not stated) | 105 nM | 42200 nM | 39 nM | –
COCc1ccc(CN(Cc2nc3ccccc3[nH]2)C2CCCc3cccnc32)c(CN)c1 (configuration not stated) | 20 nM | 201000 nM | 21 nM | –
NCc1cc(C(F)(F)F)ccc1CN(Cc1nc2ccccc2[nH]1)C1CCCc2cccnc21 (configuration not stated) | 104 nM | 26600 nM | 51 nM | –

From ChEMBL document CHEMBL1641524, “Synthesis and SAR of novel CXCR4 antagonists that are potent inhibitors of T tropic (X4) HIV-1 replication” (Bioorg Med Chem Lett, 2011)
